Among the data in patent US20230117034A1, “PYRAZOLOTRIAZINES” (Bayer Aktiengesellschaft, priority 2019, published 2023) are IC50 values, retold here.

Structures are written as SMILES.

The target in one experiment is T1, CDK2/CycE (Homo sapiens, UniProt P24941).
T1 construct: purchased ProQinase GmbH (Freiburg, Germany); host or cells: insect cells (Sf9)
Kind of experiment: CDK2/CycE kinase assay (TR-FRET, 2 mM ATP). Particulars: 2 mM ATP (high ATP); median; read-out: CDK2/CyclinE, 2 mM ATP (high ATP), IC50 (median). It counts as biochemical. Summed up:
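Biotin-peptide phosphorylation (0.75 µM substrate, 2 mM ATP final, 25 min, 22 °C) by Sf9-expressed GST-CDK2/GST-CycE, after a 15-min compound pre-binding step. Inhibition scaled between enzyme-free (100%) and uninhibited (0%) wells.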
On the technique in general: TR-FRET usually uses a lanthanide donor and a delayed reading to cut background.

Experiment [1] concerns MDA-MB-231, human breast cancer cells. Kind of experiment: Proliferation assay MDA-MB-231 (crystal violet, 4 days). It counts as cell-based. The following applies: Homo sapiens, MDA-MB-231, 96 h, MDA-MB-231 cells, median, read-out: Prolif-MDA MB-231, IC50-[mol/l] (median). The procedure:
Human tumour cells were originally obtained from the American Type Culture Collection (ATCC), or from the Deutsche Sammlung von Mikroorganismen und Zellkulturen (DSMZ, German Collection of Microorganisms and Cell Cultures). Cultivated tumour cells (CAL-120, human breast adenocarcinoma cells, DSMZ ACC-459; MDA-MB-231, human breast cancer cells, ATCC HTB-26) were plated at a density of 4,000 cells/well in a 96-well multititer plate in 200 microL of their respective growth medium supplemented 10% fetal calf serum. After 24 hours, the cells of one plate (zero-point plate) were stained with crystal violet (see below), while the medium of the other plates was supplemented with the test substances in various concentrations (0 micromol/L, as well as in the range of 0.01-10 micromol/L; the final concentration of the solvent dimethyl sulfoxide was adjusted to 0.1%) using a Tecan HP D300 Digital Dispenser. The cells were incubated for 4 days in the presence of test substances. Cell proliferation was determined by staining the cells with crystal violet: the cells were fixed by adding 20 microL/measuring point of an 11% glutaric aldehyde solution for 15 minutes at room temperature. After three washing cycles of the fixed cells with water, the plates were dried at room temperature. The cells were stained by adding 100 microL/measuring point of a 0.1% crystal violet solution (pH 3.0). After three washing cycles of the stained cells with water, the plates were dried at room temperature. The dye was dissolved by adding 100 microL/measuring point of a 10% acetic acid solution. The extinction was determined by photometry at a wavelength of 595 nm. The change of cell number, in percent, was calculated by normalization of the measured values to the extinction values of the zero-point plate (=0%) and the extinction of the untreated (0 μM) cells (=100%). The IC50 values (inhibitory concentration at 50% of maximal effect) were determined by means of a 4 parameter fit.

Turning to `OCC1CCN1c1nc(NCc2nc3ccccc3[nH]2)n2ncc(Br)c2n1` (stereo not drawn) [Example 147, [1-[4-(1H-benzimidazol-2-ylmethylamino)-8-bromo-pyrazolo[1,5-a][1,3,5]triazin-2-yl]azetidin-2-yl]methanol], the IC50 was determined as 3.12 µM at CDK2/CycE and 0.317 µM in experiment [1].

With `CN1CCN(c2nc(NCc3nc4c(F)cccc4[nH]3)n3ncc(C4CC4)c3n2)CC1` [Example 165, 8-cyclopropyl-N-[(4-fluoro-1H-benzimidazol-2-yl)methyl]-2-(4-methylpiperazin-1-yl)pyrazolo[1,5-a][1,3,5]triazin-4-amine], the IC50 at CDK2/CycE is greater than 20 µM; in experiment [1], 0.095 µM.

For `C[C@@H]1CCCCN1c1nc(NCc2nc3ccccc3[nH]2)n2ncc(Br)c2n1` [Example 140, N-[(1H-benzimidazol-2-yl)methyl]-8-bromo-2-[(2R)-2-methylpiperidin-1-yl]pyrazolo[1,5-a][1,3,5]triazin-4-amine], the IC50 at CDK2/CycE is 1.25 µM; in experiment [1] it was 0.315 µM.

Consider `[O-][S+]1CCN(c2nc(NCc3nc4ccccc4[nH]3)n3ncc(Br)c3n2)CC1` [Example 144, 4-(4-{[(1H-benzimidazol-2-yl)methyl]amino}-8-bromopyrazolo[1,5-a][1,3,5]triazin-2-yl)-1lambda^4-thiomorpholin-1-one], for which the IC50 at CDK2/CycE worked out at 7.81 µM; in experiment [1], 0.185 µM.

Take `Brc1cnn2c(NCc3nc4ccccc4[nH]3)nc(N3CCN(C4CC4)CC3)nc12` [Example 138, N-[(1H-benzimidazol-2-yl)methyl]-8-bromo-2-(4-cyclopropylpiperazin-1-yl)pyrazolo[1,5-a][1,3,5]triazin-4-amine]: the IC50 on CDK2/CycE was greater than 20 µM; in experiment [1], 0.556 µM.

Turning to `Fc1cccc(-c2nnc(CNc3nc(N4CCNCC4)nc4c(Br)cnn34)[nH]2)c1` [Example 152, 8-bromo-N-{[5-(3-fluorophenyl)-4H-1,2,4-triazol-3-yl]methyl}-2-(piperazin-1-yl)pyrazolo[1,5-a][1,3,5]triazin-4-amine], the IC50 was 5.42 µM on CDK2/CycE and 0.0127 µM in experiment [1].

Consider `CC(C)c1cnn2c(NCc3nc4ccccc4[nH]3)nc(N3CC4(COC4)C3)nc12` [Example 9, N-[(1H-benzimidazol-2-yl)methyl]-2-(2-oxa-6-azaspiro[3.3]heptan-6-yl)-8-(propan-2-yl)pyrazolo[1,5-a][1,3,5]triazin-4-amine], for which the IC50 came out at 14.7 µM at CDK2/CycE and 1.18 µM in experiment [1].

`Brc1cnn2c(NCc3nc4ccccc4[nH]3)nc(N3CCC3)nc12` [Example 143, 2-(azetidin-1-yl)-N-[(1H-benzimidazol-2-yl)methyl]-8-bromopyrazolo[1,5-a][1,3,5]triazin-4-amine]: the IC50 on CDK2/CycE amounted to 17.8 µM; in experiment [1] it was 0.827 µM.

Regarding `Cc1cccc2[nH]c(CNc3nc(N4CCN(C)CC4)nc4c(Br)cnn34)nc12` [Example 151, 8-bromo-N-[(4-methyl-1H-benzimidazol-2-yl)methyl]-2-(4-methylpiperazin-1-yl)pyrazolo[1,5-a][1,3,5]triazin-4-amine], the IC50 is 13.4 µM at CDK2/CycE and 0.0372 µM in experiment [1].

As for `Brc1cnn2c(NCc3nc4ccccc4[nH]3)nc(N3CCN4CCC[C@@H]4C3)nc12` [Example 149, N-[(1H-benzimidazol-2-yl)methyl]-8-bromo-2-[(8aR)-hexahydropyrrolo[1,2-a]pyrazin-2 (1 H)-yl]pyrazolo[1,5-a][1,3,5]triazin-4-amine], the values for the IC50 (on CDK2/CycE; in experiment [1]) were 6.38 µM and 0.276 µM, respectively.

As to `C[C@@H]1CN(c2nc(NCc3nc4ccccc4[nH]3)n3ncc(Br)c3n2)CCN1C` [Example 135, N-[(1H-benzimidazol-2-yl)methyl]-8-bromo-2-[(3R)-3,4-dimethylpiperazin-1-yl]pyrazolo[1,5-a][1,3,5]triazin-4-amine], the IC50 turned out to be 7.75 µM at CDK2/CycE and 0.044 µM in experiment [1].

With `CN1CCN(c2nc(NCc3nc4c(F)cccc4[nH]3)n3ncc(Br)c3n2)CC1` [Example 126, 8-bromo-N-[(4-fluoro-1H-benzimidazol-2-yl)methyl]-2-(4-methylpiperazin-1-yl)pyrazolo[1,5-a][1,3,5]triazin-4-amine], the IC50 at CDK2/CycE came out at 5.99 µM; in experiment [1], 0.0131 µM.

For the compound `CN1CCN(c2nc(NCc3nc4cc(Cl)ccc4[nH]3)n3ncc(Br)c3n2)CC1` [Example 163, 8-bromo-N-[(5-chloro-1H-benzimidazol-2-yl)methyl]-2-(4-methylpiperazin-1-yl)pyrazolo[1,5-a][1,3,5]triazin-4-amine], the IC50 turned out to be 10.8 µM on CDK2/CycE and 0.00396 µM in experiment [1].

As for `Clc1ccc2[nH]c(CNc3nc(N4CCOCC4)nc4c(Br)cnn34)nc2c1` [Example 162, 8-bromo-N-[(5-chloro-1H-benzimidazol-2-yl)methyl]-2-(morpholin-4-yl)pyrazolo[1,5-a][1,3,5]triazin-4-amine], the results for the IC50 (on CDK2/CycE; in experiment [1]) were 4.63 µM and 0.00402 µM, respectively.

Regarding `Cc1ccc2[nH]c(CNc3nc(N4CCOCC4)nc4c(Br)cnn34)nc2c1` [Example 157, 8-bromo-N-[(5-methyl-1H-benzimidazol-2-yl)methyl]-2-(morpholin-4-yl)pyrazolo[1,5-a][1,3,5]triazin-4-amine], the IC50 was found to be 3.02 µM at CDK2/CycE and 0.00479 µM in experiment [1].

In the case of `Brc1cnn2c(NCc3nc4ccccc4[nH]3)nc(N3CCOCC3)nc12` [Example 4, N-[(1H-benzimidazol-2-yl)methyl]-8-bromo-2-(morpholin-4-yl)pyrazolo[1,5-a][1,3,5]triazin-4-amine], the IC50 on CDK2/CycE was 2.28 µM; in experiment [1], 0.0253 µM.

Take `C[C@@H]1CN(c2nc(NCc3nc4ccccc4[nH]3)n3ncc(Br)c3n2)C[C@H](C)N1C` [Example 129, N-(1H-benzimidazol-2-ylmethyl)-8-bromo-2-[(3R,5S)-3,4,5-trimethylpiperazin-1-yl]pyrazolo[1,5-a][1,3,5]triazin-4-amine]: the values for the IC50 (on CDK2/CycE; in experiment [1]) were greater than 20 µM and 0.132 µM, respectively.

As for `CC(C)c1cnn2c(NCc3nc4ccccc4[nH]3)nc(N3CCOC[C@@H]3C)nc12` [Example 6, N-[(1H-benzimidazol-2-yl)methyl]-2-[(3S)-3-methylmorpholin-4-yl]-8-(propan-2-yl)pyrazolo[1,5-a][1,3,5]triazin-4-amine], the IC50 on CDK2/CycE was found to be 2.01 µM; in experiment [1], 0.0161 µM.

For `CC1CN(C)CCN1c1nc(NCc2nc3ccccc3[nH]2)n2ncc(Br)c2n1` (stereo not drawn) [Example 156, N-(1H-benzimidazol-2-ylmethyl)-8-bromo-2-(2,4-dimethylpiperazin-1-yl)pyrazolo[1,5-a][1,3,5]triazin-4-amine], the IC50 was determined as 3.48 µM on CDK2/CycE and 0.0205 µM in experiment [1].

In the case of `N=S1(=O)CCN(c2nc(NCc3nc4ccccc4[nH]3)n3ncc(Br)c3n2)CC1` [Example 145, 4-(4-{[(1H-benzimidazol-2-yl)methyl]amino}-8-bromopyrazolo[1,5-a][1,3,5]triazin-2-yl)-1-imino-1lambda^6-thiomorpholin-1-one], the IC50 was determined as 6.14 µM at CDK2/CycE and 1.62 µM in experiment [1].

For `COc1ccc2[nH]c(CNc3nc(N4CCOCC4)nc4c(Br)cnn34)nc2c1` [Example 160, 8-bromo-N-[(5-methoxy-1H-benzimidazol-2-yl)methyl]-2-(morpholin-4-yl)pyrazolo[1,5-a][1,3,5]triazin-4-amine], the IC50 at CDK2/CycE stood at 5.17 µM; in experiment [1], 0.00922 µM.
